In test [1] the test system is AP-1 induced transcriptional activity. In words: Cellular Transrepressional Assay (AP-1 luciferase reporter in A549 cells, PMA-activated). It is filed as cell-based. The settings on record: A549 cells with 7x AP-1 luciferase reporter, 10 ng/ml PMA, read-out: AP-1 (EC50, nM) (Cellular Transrepression Assay). The procedure: To measure the ability of test molecules to inhibit AP-1 induced transcriptional activity an A549 cell was utilized which was stably transfected with a plasmid containing 7× AP-1 DNA binding sites (pAP-1-Luc plasmid, Stratagene Co. La Jolla, Calif.) followed by the gene for luciferase. Cells were activated with 10 ng/ml of […] (PMA) plus or minus test molecules for 7 hours. After 7 hours a luciferase reagent was added to measure luciferase enzymatic activity in the cell. After a 10 minute incubation of luciferase reagent with cells, luminescence was measured in a TopCount luminescence counter. Repression of AP-1 activity was calculated as the percentage decrease in the signal induced by PMA alone. Test molecules were analyzed in the concentration range from 0.1 nM to 40 μM. EC50s were determined by using standard curve fitting methods such as Excel fit (Microsoft Co.).
Background: In a reporter assay the amount or activity of a reporter protein is the signal.

Test [2] deals with T1, human glucocorticoid receptor (Homo sapiens, UniProt P04150).
T1 construct: purified human recombinant full-length glucocorticoid receptor (2 nM); purchased Invitrogen Part #2893
T1 sequence (P04150 1-777): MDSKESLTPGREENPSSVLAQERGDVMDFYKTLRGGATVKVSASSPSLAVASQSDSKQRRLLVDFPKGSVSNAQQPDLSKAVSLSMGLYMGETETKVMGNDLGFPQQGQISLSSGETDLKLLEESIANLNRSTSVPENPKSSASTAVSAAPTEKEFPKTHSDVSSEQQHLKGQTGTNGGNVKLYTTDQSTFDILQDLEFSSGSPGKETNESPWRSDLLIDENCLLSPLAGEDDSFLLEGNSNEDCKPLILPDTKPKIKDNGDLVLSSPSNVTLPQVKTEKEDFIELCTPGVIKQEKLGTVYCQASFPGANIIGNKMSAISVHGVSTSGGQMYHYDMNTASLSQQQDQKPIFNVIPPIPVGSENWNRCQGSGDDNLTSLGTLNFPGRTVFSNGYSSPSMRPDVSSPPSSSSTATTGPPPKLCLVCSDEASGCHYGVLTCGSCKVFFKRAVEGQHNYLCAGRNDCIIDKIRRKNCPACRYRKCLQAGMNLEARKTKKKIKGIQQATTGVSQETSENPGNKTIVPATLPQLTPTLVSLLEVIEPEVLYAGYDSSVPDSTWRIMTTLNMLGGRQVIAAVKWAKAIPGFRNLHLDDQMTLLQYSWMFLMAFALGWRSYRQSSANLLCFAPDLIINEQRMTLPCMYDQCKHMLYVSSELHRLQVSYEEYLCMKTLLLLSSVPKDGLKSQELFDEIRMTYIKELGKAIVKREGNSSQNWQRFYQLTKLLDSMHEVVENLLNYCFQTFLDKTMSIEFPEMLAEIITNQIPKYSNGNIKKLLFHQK
In words: Glucocorticoid Receptor Binding Assay (I), fluorescence polarization competitor kit (Fluormone GS Red). The settings on record: purified human recombinant full-length GR 2 nM, 1 nM Fluormone GS Red, FP; read-out: GR (Ki, nM) (GR Binding Assay (I)). Here is the method: Briefly, purified human recombinant full-length glucocorticoid receptor (2 nM) was mixed with fluorescently labeled glucocorticoid (1 nM Fluormone GS Red) in the presence or absence of test compound. After two hour incubation at room temperature in the dark, the fluorescence polarization (FP) of the samples was measured. […] Test compounds were analyzed in the concentration range from 8.5E-05 μM to 5 μM.
For orientation: Fluorescence polarisation rises when a labelled molecule tumbles more slowly, as on binding a larger partner.

The results in this text go back to patent US8067447B2, “Modulators of glucocorticoid receptor, AP-1, and/or NF-κB activity and use thereof” (Bristol-Myers Squibb Company, priority 2006, dated 2011).

Where two headings read alike, the source gives them in different places.

In general, EC50 refers to the concentration giving half of the maximal effect. The Ki is the dissociation constant of the complex between target and ligand, obtained from inhibition or displacement.

`CC(C)(C(=O)Nc1nccs1)C(c1ccccc1)c1ccc2[nH]c(-c3ccccn3)cc2c1` (single isomer, unassigned) [111-enant A, 2,2-Dimethyl-3-phenyl-3-(2-(pyridin-2-yl)-1H-indol-5-yl)-N-(thiazol-2-yl)propanamide]: the EC50 in test [1] (Homo sapiens, A549, 7 h) turned out to be 1090 nM. Besides, in test [2], the Ki is 73 nM.
As to `CC(C)(C(=O)Nc1nccs1)C(c1ccccc1)c1ccc2[nH]c(-c3ccccn3)cc2c1` (single isomer, unassigned) [111-enant B, 2,2-Dimethyl-3-phenyl-3-(2-(pyridin-2-yl)-1H-indol-5-yl)-N-(thiazol-2-yl)propanamide], the EC50 in test [1] (7 hours) amounted to 777 nM. Further, in test [2], the Ki is 25 nM.
For `O=C(CC(c1ccccc1)c1ccc2c(cnn2-c2ccc(F)cc2)c1)Nc1nncs1` (single isomer, unassigned) [136-enant A, 3-(1-(4-Fluorophenyl)-1H-indazol-5-yl)-3-phenyl-N-(1,3,4-thiadiazol-2-yl)propanamide] the same measures were over 10000 nM and 23 nM.
For the compound `O=C(CC(c1ccccc1)c1ccc2c(cnn2-c2ccc(F)cc2)c1)Nc1nncs1` (single isomer, unassigned) [136-enant B, 3-(1-(4-Fluorophenyl)-1H-indazol-5-yl)-3-phenyl-N-(1,3,4-thiadiazol-2-yl)propanamide], the EC50 in test [1] (7 hours) came out at 13 nM. For the same compound, the Ki in test [2] came to 6 nM.
For the compound `CC(C(=O)Nc1nncs1)C(c1ccccc1)c1ccc2c(cnn2-c2ccc(F)cc2)c1` (single isomer, unassigned) [Example 141-isomerC, 3-(1-(4-Fluorophenyl)-1H-indazol-5-yl)-2-methyl-3-phenyl-N-(1,3,4-thiadiazol-2-yl)propanamide], in test [1] (7 hours), the EC50 stood at 0.23 nM.
On to `CC(C)(C(=O)NC1CCCC1)C(c1ccccc1)c1ccc2c(cnn2-c2ccc(F)cc2)c1` (centres unmarked) [Example 3, N-cyclopentyl-3-(1-(4-fluorophenyl)-1H-indazol-5-yl)-2,2-dimethyl-3-phenylpropanamide], for which, in test [1] (Homo sapiens, A549, 7 h), the EC50 stood at 199 nM. The Ki in test [2] amounted to 6.9 nM.
Take `Cn1ccc(NC(=O)C(C)(C)C(c2ccccc2)c2ccc3c(cnn3-c3ccc(F)cc3)c2)n1` (centres unmarked) [Example 4, 3-(1-(4-fluorophenyl)-1H-indazol-5-yl)-2,2-dimethyl-N-(1-methyl-1H-pyrazol-3-yl)-3-phenylpropanamide]: the EC50 in test [1] (Homo sapiens, A549, 7 h) is 12 nM. In addition, the Ki in test [2] came out at 7 nM.
For `CC(C)(C(=O)NS(C)(=O)=O)C(c1ccccc1)c1ccc2c(cnn2-c2ccc(F)cc2)c1` (centres unmarked) [Example 5, 3-(1-(4-fluorophenyl)-1H-indazol-5-yl)-2,2-dimethyl-N-(methylsulfonyl)-3-phenylpropanamide] the same measures were 1330 nM and 7 nM.
Turning to `CC(C)(C(=O)NS(=O)(=O)C(F)(F)F)C(c1ccccc1)c1ccc2c(cnn2-c2ccc(F)cc2)c1` (centres unmarked) [Example 6, 3-(1-(4-fluorophenyl)-1H-indazol-5-yl)-2,2-dimethyl-3-phenyl-N-(trifluoromethylsulfonyl) propanamide], the EC50 in test [1] (Homo sapiens, A549, 7 h) is over 10000 nM. The Ki in test [2] came to 77 nM.
The like results for `CC(C)(C)CNC(=O)C(C)(C)C(c1ccccc1)c1ccc2c(cnn2-c2ccc(F)cc2)c1` (centres unmarked) [Example 7, 3-(1-(4-fluorophenyl)-1H-indazol-5-yl)-2,2-dimethyl-N-neopentyl-3-phenylpropanamide] were, in that order, 904 nM and 2.9 nM.
Take `CC(C)(C(=O)NCC(F)(F)F)C(c1ccccc1)c1ccc2c(cnn2-c2ccc(F)cc2)c1` (centres unmarked) [Example 8, 3-(1-(4-fluorophenyl)-1H-indazol-5-yl)-2,2-dimethyl-3-phenyl-N-(2,2,2-trifluoroethyl)prop-anamide]: the EC50 in test [1] (Homo sapiens, A549, 7 h) stood at 1800 nM. Besides, the Ki in test [2] was found to be 3 nM.
For `CC(C)(C(=O)NCCC(F)(F)F)C(c1ccccc1)c1ccc2c(cnn2-c2ccc(F)cc2)c1` (centres unmarked) [Example 9, 3-(1-(4-fluorophenyl)-1H-indazol-5-yl)-2,2-dimethyl-3-phenyl-N-(3,3,3-trifluoropropyl)-propanamide], the EC50 in test [1] (Homo sapiens, A549, 7 h) is 3060 nM. Besides, the Ki in test [2] is 3.7 nM.
The like results for `CCOC(=O)c1nnc(NC(=O)C(C)(C)C(c2ccccc2)c2ccc3c(cnn3-c3ccc(F)cc3)c2)s1` (centres unmarked) [Example 10, ethyl 5-(3-(1-(4-fluorophenyl)-1H-indazol-5-yl)-2,2-dimethyl-3-phenylprop-anamido)-1,3,4-thiadiazole-2-carboxylate] were, in that order, 3520 nM and 227 nM.
The like results for `CC(C)(C(=O)Nc1ccsc1)C(c1ccccc1)c1ccc2c(cnn2-c2ccc(F)cc2)c1` (centres unmarked) [Example 11, 3-(1-(4-fluorophenyl)-1H-indazol-5-yl)-2,2-dimethyl-3-phenyl-N-(thiophen-3-yl)propanamide] were, in that order, 73 nM and 11 nM.
For `CC(C)(C(=O)Nc1nc[nH]n1)C(c1ccccc1)c1ccc2c(cnn2-c2ccc(F)cc2)c1` (centres unmarked) [Example 13, 3-(1-(4-fluorophenyl)-1H-indazol-5-yl)-2,2-dimethyl-3-phenyl-N-(1H-1,2,4-triazol-3-yl)propanamide] the same measures were 17 nM and 11 nM.
Consider `CC(C)(C(=O)Nc1nnn[nH]1)C(c1ccccc1)c1ccc2c(cnn2-c2ccc(F)cc2)c1` (centres unmarked) [Example 14, 3-(1-(4-fluorophenyl)-1H-indazol-5-yl)-2,2-dimethyl-3-phenyl-N-(1H-tetrazol-5-yl)propanamide], for which, in test [1] (Homo sapiens, A549, 7 h), the EC50 was over 10000 nM. In addition, in test [2], the Ki worked out at 17 nM.
As for `CC(C)(C(=O)Nc1cc(O)[nH]n1)C(c1ccccc1)c1ccc2c(cnn2-c2ccc(F)cc2)c1` (centres unmarked) [Example 15, 3-(1-(4-fluorophenyl)-1H-indazol-5-yl)-N-(5-hydroxy-1H-pyrazol-3-yl)-2,2-dimethyl-3-phenylpropanamide], the EC50 in test [1] (Homo sapiens, A549, 7 h) was over 10000 nM. Also, the Ki in test [2] stood at 318 nM.
Consider `CC(C)(C(=O)Nc1n[nH]cc1C#N)C(c1ccccc1)c1ccc2c(cnn2-c2ccc(F)cc2)c1` (centres unmarked) [Example 16, N-(4-cyano-1H-pyrazol-3-yl)-3-(1-(4-fluorophenyl)-1H-indazol-5-yl)-2,2-dimethyl-3-phenylpropanamide], for which the EC50 in test [1] (Homo sapiens, A549, 7 h) is over 10000 nM. The Ki in test [2] is 163 nM.
For `Cc1cnc(NC(=O)C(C)(C)C(c2ccccc2)c2ccc3c(cnn3-c3ccc(F)cc3)c2)s1` (centres unmarked) [Example 17, 3-(1-(4-fluorophenyl)-1H-indazol-5-yl)-2,2-dimethyl-N-(5-methylthiazol-2-yl)-3-phenylpropanamide] the same measures were 49 nM and 11 nM.
For `Cc1nnc(NC(=O)C(C)(C)C(c2ccccc2)c2ccc3c(cnn3-c3ccc(F)cc3)c2)s1` (centres unmarked) [Example 18, 3-(1-(4-fluorophenyl)-1H-indazol-5-yl)-2,2-dimethyl-N-(5-methyl-1,3,4-thiadiazol-2-yl)-3-phenylpropanamide] the same measures were 141 nM and 21 nM.
The like results for `CC(C)(C(=O)Nc1sccc1C#N)C(c1ccccc1)c1ccc2c(cnn2-c2ccc(F)cc2)c1` (centres unmarked) [Example 19, N-(3-cyanothiophen-2-yl)-3-(1-(4-fluorophenyl)-1H-indazol-5-yl)-2,2-dimethyl-3-phenylpropanamide] were, in that order, over 10000 nM and 47 nM.
Turning to `CCc1nnc(NC(=O)C(C)(C)C(c2ccccc2)c2ccc3c(cnn3-c3ccc(F)cc3)c2)s1` (centres unmarked) [Example 20, N-(5-ethyl-1,3,4-thiadiazol-2-yl)-3-(1-(4-fluorophenyl)-1H-indazol-5-yl)-2,2-dimethyl-3-phenylpropanamide], in test [1] (Homo sapiens, A549, 7 h), the EC50 is over 10000 nM. In test [2], the Ki came out at 10 nM.
For `O=C(Nc1nccs1)C1CC1(c1ccccc1)c1ccc2c(cnn2-c2ccc(F)cc2)c1` (stereo not drawn) [Example 99, Cis-2-(1-(4-fluorophenyl)-1H-indazol-5-yl)-2-phenyl-N-(thiazol-2-yl)cyclopropanecarboxamide], the EC50 in test [1] (7 hours) is over 10000 nM.
